Data as given in patent US8748398B2, “Stroke-targeting peptide and use thereof” (Kyungpook National University Industry-Academic Cooperation …, priority 2008, dated 2014).
Where no end group is shown, it is not given here.

Legend:
[1] = test system: ipsilateral (ischemic) hemisphere of a brain; assay: In vivo screening of phage-displayed CX7C peptide library, frequency of selected clones; conditions: 30 phage clones randomly selected in second and third rounds, rat with occluded MCA
[2] = test system: ischemic stroke tissue; assay: In vivo targeting of fluorescein-labeled peptide, fluorescence microscopy of frozen sections with TTC and TUNEL staining; parameters: species or system rat; conditions: for targeting to the contralateral tissue / targeting to the ipsilateral tissue: fluorescein peptide into left ventricle 24 hours after ischemic injury
[3] = test system: β-tubulin-positive neuron cell and GFAP-positive astrocyte in the ischemic brain tissue; assay: Immunofluorescence staining for the type of cells bound to the peptide (anti-tubulin, anti-GFAP); assay type: in vivo, rat; conditions: 24 hours after ischemic injury
[4] = test system: ischemic stroke tissue; assay: Autoradiogram of absorption of 131I-labeled peptide in ischemic stroke tissue; assay type: in vivo, rat
[5] = tail vein 24 hours after ischemic injury, 1-hour circulation

Substance	Frequency (%) [1]	Frequency (clones with the sequence / clones sequenced) [1]	targeting to the contralateral tissue ([2]; 15-minute circulation)	targeting to the ipsilateral tissue ([2]; 15-minute circulation)	also measured
CTKRNAPDC (Stroke-targeting peptide 4)	(10%)	3/30			
CKRGGATAC (Stroke-targeting peptide 2)	(23%)	7/30			
CLEVSRKNC (Stroke-targeting peptide 1)	(30%)	9/30	not targeted to the contralateral tissue	targeted to the ipsilateral tissue	targeting to the ischemic hemisphere ([2]; 2-hour circulation (data not noted)): targeted to the ischemic hemisphere; targeting to control group organs (spleen, liver, lung) ([2]; 15-minute circulation): little; region of the stroke tissue where targeting was observed ([2]; 15-minute circulation, TTC staining): observed in a penumbra; binding to TUNEL-stained apoptotic cells in the penumbra ([2]; TUNEL staining of frozen sections): most of the apoptotic cells stained with TUNEL, except for some of them, were bound; co-localisation with GFAP-positive astrocyte in the ischemic brain tissue [3]: did not correspond; co-localisation with β-tubulin-positive neuron cell in the ischemic brain tissue [3]: corresponded to the position of β-tubulin-positive neuron cell; targeting in a neuron cell and an astrocyte in the contralateral brain tissue [3]: not observed
CNSREVLKC [CNSREVLKC peptide, reference compound]			not observed	not observed	
CRSAVAKNC (Stroke-targeting peptide 3)	(17%)	5/30			
^131I-CLEVSRKNC peptide: CLEVSRKNC peptide (SEQ ID NO: 1) labeled with radioisotope 131I (cysteine pairing not given here; also: 131I radiolabel)					absorption in a general brain of a control group rat ([4]; 1-hour circulation): insufficient; absorption rate by optically stimulated luminescence ([4]; 4 coronal sections, third day vs first and seventh day, P<0.01): very high absorption rate on the third day; time course of absorption in ischemic tissue after ischemic injury ([4]; first, third and seventh day after ischemic injury): reached a peak on the third day; absorption in the contralateral region [4, 5]: insufficient; absorption in the ipsilateral hemisphere [4, 5]: observed in the ipsilateral hemisphere
